Results on one compound are retold here after article doi:10.1101/2023.07.31.551370, “A diversified, widespread microbial gene cluster encodes homologs of methyltransferases involved in methanogenesis” (bioRxiv, 2023).

Molecules are shown by their SMILES.

Test [1] concerns the target T1, ClMlp2.
T1 construct: gene mlp2; recombinant ClMlp2
The test is described as follows: UV-visible spectroscopy, loss of methylcob(III)alamin absorbance at […] nm, steady-state kinetics. The format is biochemical, Clostridium ljungdahlii. As to conditions: co-substrate methylcob(III)alamin (non-physiological methyl donor); strictly anoxic nitrogen atmosphere; reverse of the hypothesized physiological reaction; fit with substrate inhibition; substrate in.

For test [2], the system named is T1, ClMlp2. Described as above. As to conditions: co-substrate methylcob(III)alamin (non-physiological methyl donor); strictly anoxic nitrogen atmosphere; reverse of the hypothesized physiological reaction; fit with substrate inhibition; read-out: apparent KM. The format is biochemical, Clostridium ljungdahlii.

In general, Km refers to the concentration of substrate that gives half-maximal velocity. `[SeH2]` [selenide]: the “KI (selenide substrate inhibition constant)” value on ClMlp2 [1] came to 3.83 mM. The Km in the test on ClMlp2 [2] came out at 79.8 µM.
